Reference: patent US6365598B1, “Pyrroloquinolines for treatment of obesity” (Vernalis Research Limited, priority 1998, dated 2002)
Structures can show the parent of a compound that is named as a salt.

Key:
human 5-HT2B receptors = target: T1, human 5-HT2B receptors (Homo sapiens, UniProt P41595); assay: Binding to 5-HT2B receptor, [3H]-5-HT, CHO cell line; settings: read-out: Ki (2B)
T1 construct: expressed in transfected cells; host or cells: CHO cell line
Method: (§1) 1. Binding to Serotonin Receptors
(§2) The binding of compounds of formula (I) to serotonin receptors was determined in vitro by standard methods. The preparations were investigated in accordance with the assays given hereinafter.
Method (b): For the binding to the 5-HT2B receptor the 5-HT2B receptors were radiolabeled with [^3H]-5-HT. The affinity of the compounds for human 5-HT2B receptors in a CHO cell line was determined according to the procedure of K. Schmuck, C. Ullmer, P. Engels and H. Lubbert, FEBS Lett., 1994, 342, 85-90.

5-HT2A receptors [1] = target: T2, 5-HT2A receptors (Homo sapiens, UniProt P28223); assay: Binding to 5-HT2A receptor, [125I]-DOI, CHO cell line; design: expressed in transfected cells; host or cells: CHO cell line; settings: read-out: Ki (2A)
T2 sequence (P28223 whole entry): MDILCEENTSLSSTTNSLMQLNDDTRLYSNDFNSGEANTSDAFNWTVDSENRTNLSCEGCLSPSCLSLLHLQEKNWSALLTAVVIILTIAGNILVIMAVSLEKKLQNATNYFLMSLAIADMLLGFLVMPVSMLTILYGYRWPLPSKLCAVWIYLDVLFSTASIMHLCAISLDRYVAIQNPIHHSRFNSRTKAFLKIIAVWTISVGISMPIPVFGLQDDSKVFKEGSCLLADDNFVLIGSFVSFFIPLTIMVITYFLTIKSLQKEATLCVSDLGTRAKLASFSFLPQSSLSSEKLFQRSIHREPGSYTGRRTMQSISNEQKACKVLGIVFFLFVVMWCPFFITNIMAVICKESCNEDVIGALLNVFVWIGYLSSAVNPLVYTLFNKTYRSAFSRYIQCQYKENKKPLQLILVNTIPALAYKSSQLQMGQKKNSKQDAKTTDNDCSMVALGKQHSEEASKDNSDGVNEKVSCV
Method: as §1, §2
Method (c): For the binding to the 5-HT2A receptor the 5-HT2A receptors were radiolabeled with [^125I]-DOI. The affinity of the compounds for 5-HT2A receptors in a CHO cell line was determined according to the procedure of D. J. McKenna and S. J. Peroutka, J. Neurosci., 1989, 9, 3482-90.

5-HT2c receptors [2] = target: T3, 5-HT2c receptors (Homo sapiens, UniProt P28335); assay: Functional activity, FLIPR calcium assay, CHO cells expressing human 5-HT2C; type: cell-based; design: expressed in transfected cells; host or cells: CHO cells; settings: for EC50: FLIPR, CHO cells, Fluo-3-AM, read-out: h5-HT2C EC50; for h5-HT2C Relative Efficacy (%): maximum fluorescent signal relative to 10 μM 5-HT (defined as 100%)
T3 sequence (P28335 33-458): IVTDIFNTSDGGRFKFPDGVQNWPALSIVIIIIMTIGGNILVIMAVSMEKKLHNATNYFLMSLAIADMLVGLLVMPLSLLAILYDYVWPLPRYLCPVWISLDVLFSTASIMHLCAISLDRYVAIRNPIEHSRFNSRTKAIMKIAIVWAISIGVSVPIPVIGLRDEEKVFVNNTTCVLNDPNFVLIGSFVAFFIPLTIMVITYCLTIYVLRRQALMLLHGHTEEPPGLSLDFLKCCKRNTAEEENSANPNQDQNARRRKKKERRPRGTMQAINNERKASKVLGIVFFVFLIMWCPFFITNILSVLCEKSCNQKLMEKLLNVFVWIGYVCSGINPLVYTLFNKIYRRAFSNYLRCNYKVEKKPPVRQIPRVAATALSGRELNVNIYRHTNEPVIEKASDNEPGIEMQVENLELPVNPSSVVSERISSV
Method: (§3) The functional activity of compounds of formula (I) was assayed using a Fluorimetric Imaging Plate reader (FLIPR). CHO cells expressing the human 5-HT2C or human 5-HT2A receptors were counted and plated into standard 96 well microtitre plates on the day before testing to give a confluent monolayer. The cells were then dye loaded with the calcium sensitive dye, Fluo-3-AM. Unincorporated dye was removed using an automated cell washer to leave a total volume of 100 μL/well of assay buffer (Hanks balanced salt solution containing 20 mM Hepes and 2.5 mM probenecid). The drug (dissolved in 50 μL of the assay buffer) was added at a rate of 70 μL/sec to each well of the FLIPR 96 well plate during fluorescence measurements. The measurements were taken at 1 sec intervals and the maximum fluorescent signal was measured (approx 10-15 secs after drug addition) and compared with the response produced by 10 μM 5-HT (defined as 100%) to which it was expressed as a percentage response (relative efficacy). Dose response curves were constructed using Graphpad Prism (Graph Software Inc.).

5-HT2A receptors [3] = target: T2, 5-HT2A receptors; assay: Functional activity, FLIPR calcium assay, CHO cells expressing human 5-HT2A; type: cell-based; design: expressed in transfected cells; host or cells: CHO cells; settings: for EC50: FLIPR, CHO cells, Fluo-3-AM, read-out: h5-HT2A EC50; for h5-HT2A Relative Efficacy (%): maximum fluorescent signal relative to 10 μM 5-HT (defined as 100%)
Method: as §3

food deprived animals = assay: Regulation of feeding behaviour: food consumption in food deprived animals; type: in vivo; settings: 2 hours after a dose of 10 mg/kg s.c.
Method: 4. Regulation of Feeding Behaviour
The in vivo activity of compounds of formula (I) on feeding behaviour was assayed by measuring food consumption in food deprived animals.
Test compounds were assessed following acute administration. Each study utilised a between-subjects design (typically n=8) and compared the effects of doses of the test agent to those of vehicle and a positive control.
The anorectic drug d-fenfluramine normally serves as a positive control. The route of drug administration, drug volume and injection-test-interval are dependent upon the compounds used. A palatable wet mash, made by adding powdered lab chow and water in a ratio of 1:2 and mixing to a smooth consistency, was presented in 120 ML glass jars for 60 minutes each day. Intake was measured by weighing before and after each session. Care was taken to collect all spillage. Animals were allowed to habituate to the wet mash meal for 10 days. After drug administration, animals were allowed to consume the wet mash. Food consumption was assayed at pre-determined time points (typically 1, 2 and 4 hours after administration). Food intake data were subjected to one-way analysis of variance (ANOVA) with drug as a between-subjects factor. […] All statistical analyses were performed using Statistica Software, Version 5.0 (Statsoft Inc.) and Microsoft Excel 7.0 (Microsoft Corp.).

5-HT2c receptors [4] = target: T3, 5-HT2c receptors; assay: Binding to 5-HT2C receptor, [3H]-5-HT, CHO cell line; design: expressed in transfected cells; host or cells: CHO cell line; settings: read-out: Ki (2C)
Method: as §1, §2
Method (a): For the binding to the 5-HT2c, receptor the 5-HT2c receptors were radiolabeled with [^3H]-5-HT. The affinity of the compounds for 5-HT2c receptors in a CHO cell line was determined according to the procedure of D. Hoyer, G. Engel and H. O. Kalkman, European J. Pharmacol., 1985, 118,13-23.

T1 sequence (P41595 whole entry): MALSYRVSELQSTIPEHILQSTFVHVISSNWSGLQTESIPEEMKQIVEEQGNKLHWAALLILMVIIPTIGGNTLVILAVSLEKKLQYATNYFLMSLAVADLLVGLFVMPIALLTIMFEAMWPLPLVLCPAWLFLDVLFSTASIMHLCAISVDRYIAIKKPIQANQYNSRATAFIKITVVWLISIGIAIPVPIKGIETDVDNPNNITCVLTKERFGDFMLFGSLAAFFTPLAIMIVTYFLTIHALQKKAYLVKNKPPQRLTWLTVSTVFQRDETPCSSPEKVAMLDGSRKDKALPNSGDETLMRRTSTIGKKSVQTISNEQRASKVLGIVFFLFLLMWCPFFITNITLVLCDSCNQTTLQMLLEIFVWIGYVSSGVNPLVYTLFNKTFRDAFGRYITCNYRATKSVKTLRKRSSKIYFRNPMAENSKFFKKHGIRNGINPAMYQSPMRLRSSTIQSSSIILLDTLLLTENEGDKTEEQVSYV

SMILES	melting point [°C]	Ki (human 5-HT2B receptors) [µM]	Ki (5-HT2A receptors [1]) [µM]	EC50 (5-HT2c receptors [2]) [µM]	h5-HT2C Relative Efficacy (%) (5-HT2c receptors [2])	EC50 (5-HT2A receptors [3]) [µM]	h5-HT2A Relative Efficacy (%) (5-HT2A receptors [3])	hypophagia (food consumption) (food deprived animals)	Ki (5-HT2c receptors [4]) [µM]
C[C@@H](N)Cn1ccc2ccc3ncccc3c21 (as salt: hydrochloride) [Example 2, (R)-1-(1H-Pyrrolo[2,3-f]quinolin-1-yl)-2-propylamine]	223 to 225	–	–	–	–	–	–	–	–
C[C@H](N)Cn1ccc2ccc3ncccc3c21 [Example 1, (S)-1-(1H-Pyrrolo[2,3-f]quinolin-1-yl)-2-propylamine]	–	0.012	0.045	0.012	93	0.36	100	significant hypophagia	0.009
COc1nccc2c1ccc1ccn(C[C@H](C)N)c12 (as salt: fumarate)	180 to 182	–	–	–	–	–	–	–	–
C[C@H](N)Cn1ccc2ccc3cccnc3c21 [Example 8, (S)-1-(1H-Pyrrolo[3,2-h]quinolin-1-yl)-2-propylamine hemifumarate]	–	0.088	0.09	0.099	24	1.07	31	–	0.045
C[C@@H](Cn1ccc2ccc3ncccc3c21)NCc1ccc2c(c1)OCO2 [Example 9, (S)-[1-(1H-Pyrrolo[2,3-f]quinolin-1-yl)-2-propyl]-(3,4-methylenedioxybenzyl)amine bis-fumarate]	–	–	–	0.085	90	1.3	65	–	–
C[C@H](N)Cn1ccc2cc(Cl)c3ncccc3c21 [Example 5, (S)-1-(5-Chloro-1H-pyrrolo[2,3-f]-quinolin-1-yl)-2-propylamine fumarate]	–	–	–	0.005	86	0.052	80	–	–
CC(N)Cn1ccc2ccc3ncccc3c21 (racemic) [Example 3, (RS)-1-(1H-Pyrrolo[2,3-f]quinolin-1-yl)-2-propylamine hydrochloride]	–	0.009	0.04	–	–	–	–	–	0.024
C[C@H](N)Cn1ccc2ccc3cnccc3c21 (as salt: fumarate) [Example 4, (S)-1-(1H-Pyrrolo[2,3-f]isoquinolin-1-yl)-2-propylamine fumarate]	165	–	–	–	–	–	–	–	–
C[C@H](N)Cn1ccc2cc(Cl)c3ncccc3c21 (as salt: fumarate) [Example 5, (S)-1-(5-Chloro-1H-pyrrolo[2,3-f]-quinolin-1-yl)-2-propylamine fumarate]	228 to 229	–	–	–	–	–	–	–	–
C[C@H](N)Cn1ccc2ccc3cnccc3c21 [Example 4, (S)-1-(1H-Pyrrolo[2,3-f]isoquinolin-1-yl)-2-propylamine fumarate]	–	0.084	0.173	0.142	89	0.87	54	–	0.156
C[C@H](N)Cn1ccc2ccc3ccncc3c21 (as salt: fumarate) [Example 7, (S)-1-(1H-Pyrrolo[3,2-h]isoquinolin-1-yl)-2-propylamine fumarate]	153 to 154	–	–	–	–	–	–	–	–
C[C@H](N)Cn1ccc2ccc3ccncc3c21 [Example 7, (S)-1-(1H-Pyrrolo[3,2-h]isoquinolin-1-yl)-2-propylamine fumarate]	–	–	–	0.036	83	0.636	61	–	–
C[C@H](N)Cn1ccc2ccc3cccnc3c21 (as salt: fumarate) [Example 8, (S)-1-(1H-Pyrrolo[3,2-h]quinolin-1-yl)-2-propylamine hemifumarate]	212 to 214	–	–	–	–	–	–	–	–
C[C@H](N)Cn1ccc2ccc3ncccc3c21 (as salt: hydrochloride) [Example 1, (S)-1-(1H-Pyrrolo[2,3-f]quinolin-1-yl)-2-propylamine]	222 to 224	–	–	–	–	–	–	–	–
C[C@@H](N)Cn1ccc2ccc3ncccc3c21 [Example 2, (R)-1-(1H-Pyrrolo[2,3-f]quinolin-1-yl)-2-propylamine]	–	0.005	0.037	0.007	85	0.087	96	significant hypophagia	0.022
